Reference: patent US20250313563A1, “GLYCOGEN SYNTHASE KINASE 3 INHIBITORS AND USES THEREOF” (The Broad Institute, Inc., priority 2022, published 2025)
Read-outs that look alike come from different tables or passages of the source.

How the values were obtained:
[1] = biological target: GSK3α (GST-full length GSK3α) (Homo sapiens (Human), UniProt P49840); assay: GSK3α TR-FRET kinase assay; format: biochemical
How it was run: (§1)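 In this time-resolved FRET format, kinase reactions contained 200 nM biotinylated, S645-phosphorylated glycogen synthase 631-650 peptide and either isoform-specific ATP (2 μM GSK3b, 4 μM GSK3α) or 1 mM ATP. They were quenched with EDTA after 100 min at ambient temperature. Inhibition curves gave IC50 values.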

[2] = biological target: GSK3b (GST-full length GSK3b) (Homo sapiens (Human), UniProt P49841); assay: GSK3b TR-FRET kinase assay; format: biochemical
How it was run: as §1

[3] = 1 nM GSK3α, 4 μM ATP, 30 minute preincubation, Table 16, read-out: GSK3-A TR-FRET BIOCHEMICAL (TR-FRET), IC50
[4] = 1 nM GSK3b, 2 μM ATP, 30 minute preincubation, Table 16, read-out: GSK3-B TR-FRET BIOCHEMICAL (TR-FRET), IC50
[5] = read-out: GSK3-A (TR-FRET 1 mM ATP), GMean, IC50, 1 mM ATP, geometric mean
[6] = read-out: GSK3-B (TR-FRET 1 mM ATP), GMean, IC50, 1 mM ATP, geometric mean
[7] = 1 nM GSK3α, 4 μM ATP, 30 minute preincubation, read-out: GSK3-A TR-FRET BIOCHEMICAL (TR-FRET), IC50
[8] = GSK3-A (TR-FRET 1 mM ATP), GMean, IC50, 1 mM ATP, geometric mean
[9] = 1 nM GSK3b, 2 μM ATP, 30 minute preincubation, read-out: GSK3-B TR-FRET BIOCHEMICAL (TR-FRET), IC50
[10] = GSK3-B (TR-FRET 1 mM ATP), GMean, IC50, 1 mM ATP, geometric mean
[11] = 1 nM GSK3α, 4 μM ATP, 30 minute preincubation, Table 16, read-out: GSK3-A TR-FRET BIOCHEMICAL (TR-FRET)
[12] = 1 nM GSK3b, 2 μM ATP, 30 minute preincubation, Table 16, read-out: GSK3-B TR-FRET BIOCHEMICAL (TR-FRET)

Chain of GSK3b (GST-full length GSK3b) (P49841 whole entry): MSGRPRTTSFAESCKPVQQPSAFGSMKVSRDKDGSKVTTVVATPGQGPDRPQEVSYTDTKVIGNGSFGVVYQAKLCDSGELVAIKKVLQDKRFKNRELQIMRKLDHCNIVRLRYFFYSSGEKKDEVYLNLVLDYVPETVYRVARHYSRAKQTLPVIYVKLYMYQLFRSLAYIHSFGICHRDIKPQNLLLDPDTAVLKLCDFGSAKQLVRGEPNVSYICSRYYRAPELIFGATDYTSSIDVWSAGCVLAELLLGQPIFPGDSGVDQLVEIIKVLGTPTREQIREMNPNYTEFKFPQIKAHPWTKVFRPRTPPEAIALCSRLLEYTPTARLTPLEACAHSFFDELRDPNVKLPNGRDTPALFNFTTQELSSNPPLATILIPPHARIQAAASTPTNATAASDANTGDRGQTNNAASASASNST
Chain of GSK3α (GST-full length GSK3α) (P49840 whole entry, canonical isoform): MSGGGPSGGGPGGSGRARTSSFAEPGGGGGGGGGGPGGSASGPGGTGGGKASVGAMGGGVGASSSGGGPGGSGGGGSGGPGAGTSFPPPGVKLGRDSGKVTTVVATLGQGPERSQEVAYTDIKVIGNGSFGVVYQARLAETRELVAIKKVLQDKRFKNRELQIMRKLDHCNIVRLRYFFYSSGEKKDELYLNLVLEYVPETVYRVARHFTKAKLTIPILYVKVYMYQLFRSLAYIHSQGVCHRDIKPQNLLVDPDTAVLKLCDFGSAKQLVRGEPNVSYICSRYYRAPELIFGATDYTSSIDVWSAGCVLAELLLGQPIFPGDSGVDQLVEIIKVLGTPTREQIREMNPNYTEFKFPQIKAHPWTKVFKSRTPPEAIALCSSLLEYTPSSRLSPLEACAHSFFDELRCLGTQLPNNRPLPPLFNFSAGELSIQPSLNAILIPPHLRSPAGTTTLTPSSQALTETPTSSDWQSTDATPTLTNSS

| IC50 [1, 3] | IC50 [2, 4] | IC50 [1, 8] | IC50 [2, 10] | IC50 [1, 11] | IC50 [2, 12] | Compound | further results |
| --- | --- | --- | --- | --- | --- | --- | --- |
| 1000 to 5000 nM | > 5000 nM | – | – | – | – | CC[C@@]1(c2cccc(Oc3ncccn3)c2)C2=C(CC(C)(C)NC2=O)Nc2n[nH]c(Cl)c21 [Compound 951605] | – |
| – | – | 100 to 1000 nM | 1000 to 5000 nM | – | – | CC(C)S(=O)(=O)N1CCC2(CC1)C1=C(Nc3n[nH]cc32)[C@H](F)C(C)(C)CC1=O [Compound 951701] | IC50 [1, 7]: ≤ 100 nM; IC50 [2, 9]: ≤ 100 nM |
| ≤ 100 nM | 100 to 1000 nM | – | – | – | – | CCC1(c2cccc(-c3cn(C)nc3C)c2)C2=C(CC(C)(C)C2=O)Nc2n[nH]cc21 (stereo not drawn) [Compound 951702] | IC50 [1, 5]: 100 to 1000 nM; IC50 [2, 6]: > 5000 nM |
| – | – | 100 to 1000 nM | 1000 to 5000 nM | ≤ 100 nM | ≤ 100 nM | CC1(C)CC(=O)C2=C(Nc3n[nH]cc3C23CCN(S(=O)(=O)c2cccc(C(F)(F)F)c2)CC3)[C@@H]1F [Compound 951703] | – |
| – | – | – | – | ≤ 100 nM | 100 to 1000 nM | Cn1ccc(S(=O)(=O)N2CCC3(CC2)C2=C(Nc4n[nH]cc43)[C@@H](F)C(C)(C)CC2=O)n1 [Compound 951708] | – |
| > 5000 nM | > 5000 nM | – | – | – | – | CC[C@@]1(c2cccc(-c3cn(C)nc3C)c2)C2=C(CC(C)(C)C2=O)Nc2n[nH]cc21 [Compound 951710] | – |
| – | – | 100 to 1000 nM | 1000 to 5000 nM | ≤ 100 nM | ≤ 100 nM | CC1(C)CC(=O)C2=C(Nc3n[nH]cc3C23CCN(S(=O)(=O)c2cccc(C(F)(F)F)c2)CC3)[C@H]1F [Compound 951713] | – |
| ≤ 100 nM | 100 to 1000 nM | – | – | – | – | CC[C@]1(c2cccc(N(C)c3ncccn3)c2)C2=C(CC(C)(C)NC2=O)Nc2n[nH]c(C(F)F)c21 [Compound 951736] | – |

Continued, molecule first:

| Compound | IC50 [1, 3] | IC50 [2, 4] | IC50 [1, 8] | IC50 [2, 10] | IC50 [1, 11] | IC50 [2, 12] | further results |
| --- | --- | --- | --- | --- | --- | --- | --- |
| CC[C@]1(c2cccc(Oc3ncccn3)c2)C2=C(CC(C)(C)NC2=O)Nc2n[nH]c(C(F)(F)F)c21 [Compound 951607] | ≤ 100 nM | ≤ 100 nM | – | – | – | – | IC50 [1, 5]: ≤ 100 nM; IC50 [2, 6]: 100 to 1000 nM |
| CC[C@]1(c2cccc(-c3ccncc3F)c2)C2=C(CC(C)(C)NC2=O)Nc2n[nH]c(C(F)F)c21 [Compound 951612] | ≤ 100 nM | ≤ 100 nM | – | – | – | – | IC50 [1, 5]: 100 to 1000 nM; IC50 [2, 6]: 1000 to 5000 nM |
| CC[C@@]1(c2cccc(N(C)c3ncccn3)c2)C2=C(CC(C)(C)NC2=O)Nc2n[nH]c(Cl)c21 [Compound 951618] | 100 to 1000 nM | 1000 to 5000 nM | – | – | – | – | – |
| CC1(C)CC(=O)C2=C(Nc3n[nH]cc3C23CCCCC3)[C@@H]1F [Compound 951705] | – | – | – | – | ≤ 100 nM | ≤ 100 nM | – |
| CC[C@]1(c2cccc(-c3cn(C)nc3C3CC3)c2)C2=C(CC(C)(C)NC2=O)Nc2n[nH]cc21 [Compound 951706] | ≤ 100 nM | ≤ 100 nM | – | – | – | – | – |
| CC[C@]1(c2cccc(-c3cnn(C4CCCCC4)c3)c2)C2=C(CC(C)(C)NC2=O)Nc2n[nH]cc21 [Compound 951707] | 100 to 1000 nM | 1000 to 5000 nM | – | – | – | – | – |
| Cn1ccc(S(=O)(=O)N2CCC3(CC2)C2=C(Nc4n[nH]cc43)[C@H](F)C(C)(C)CC2=O)n1 [Compound 951709] | – | – | – | – | ≤ 100 nM | 100 to 1000 nM | – |
| CC1(C)CC(=O)C2=C(Nc3n[nH]cc3C23CCCCC3)[C@H]1F [Compound 951711] | – | – | – | – | ≤ 100 nM | ≤ 100 nM | – |
| CC(C)S(=O)(=O)N1CCC2(CC1)C1=C(Nc3n[nH]cc32)[C@@H](F)C(C)(C)CC1=O [Compound 951714] | – | – | 100 to 1000 nM | 100 to 1000 nM | – | – | IC50 [1, 7]: ≤ 100 nM; IC50 [2, 9]: ≤ 100 nM |
| CC1(C)CC(=O)C2=C(C1)Nc1n[nH]cc1[C@]21CCN(S(=O)(=O)CC2CC2)C1 [Compound 951723] | – | – | ≤ 100 nM | 100 to 1000 nM | – | – | IC50 [1, 7]: ≤ 100 nM; IC50 [2, 9]: ≤ 100 nM |
| CC1(C)CC(=O)C2=C(C1)Nc1n[nH]cc1[C@@]21CCN(S(=O)(=O)CC2CC2)C1 [Compound 951724] | – | – | – | – | ≤ 100 nM | ≤ 100 nM | – |
| Cn1cc(S(=O)(=O)N2CC[C@]3(C2)C2=C(CC(C)(C)CC2=O)Nc2n[nH]cc23)cn1 [Compound 951725] | – | – | 100 to 1000 nM | 1000 to 5000 nM | ≤ 100 nM | ≤ 100 nM | – |
| Cn1cc(S(=O)(=O)N2CC[C@@]3(C2)C2=C(CC(C)(C)CC2=O)Nc2n[nH]cc23)cn1 [Compound 951726] | – | – | 1000 to 5000 nM | 1000 to 5000 nM | ≤ 100 nM | ≤ 100 nM | – |
| CC1(C)CC(=O)C2=C(C1)Nc1n[nH]cc1[C@]21CCN(S(=O)(=O)c2ccccc2)C1 [Compound 951787] | – | – | ≤ 100 nM | 100 to 1000 nM | – | – | IC50 [1, 7]: ≤ 100 nM; IC50 [2, 9]: ≤ 100 nM |
